Common to all, as to format: functional
The test system of one experiment is HT-29. The experiment in a line: Cytotoxicity against human HT-29 cells. The following applies: read-out: ED50 (the source's name).
The subject of another experiment is MCF7. The experiment is described as follows: Cytotoxicity against human MCF7 cells. Conditions: read-out: ED50 (the source's name).
Another experiment relates to A549. The experiment is described as follows: Cytotoxicity against human A549 cells.

Each structure is given as a SMILES string. Converted amounts (≈) assume the structure as drawn.

Take `CCCCCC[C@H](O)CCC[C@H](O)[C@H]1CC[C@H]([C@H]2CC(O)[C@H]([C@H](O)CCCCCCCCCCCCC3=C[C@H](C)OC3=O)O2)O1` (stereo partly specified) [ANNONIN XVI]: the EC50 with HT-29 was determined as 1.42 µg/mL (≈ 2.22 µM); in the experiment on MCF7, 1.46 µg/mL (≈ 2.29 µM). Further, the ED50 in the experiment with A549 was <1 ×10⁻⁸ ug/ml.

In the case of `COc1cccc2c1C(=O)c1c(O)c3c(c(O)c1C2=O)C[C@@](O)(C(=O)CO)C[C@@H]3O[C@H]1C[C@H](N)[C@H](O)[C@H](C)O1` [DOXORUBICIN], the EC50 in the experiment with HT-29 turned out to be 0.0013 µg/mL (≈ 0.00239 µM); in the experiment with MCF7, 0.0913 µg/mL (≈ 0.168 µM). For the same compound, the ED50 in the experiment with A549 came out at 2.08 ×10⁻⁴ ug/ml.

Source of the values: ChEMBL document CHEMBL1148179, “Structural revisions of some non-adjacent bis-tetrahydrofuran annonaceous acetogenins” (1993).
